pEC50, pIC50: −log10 of the molar value.
Assays:
[1] = biological target: T1, HCV NS3/4A protease complex (UniProt P27958, C1454S/C1711G, species not given); test: Recombinant HCV NS3/4A protease complex FRET peptide assay (strain not stated); type: biochemical; details: HCV NS3/4A protease enzyme assay, read-out: IC50 range
T1 construct: fused on or other part: Three-lysine solubilising tail at the C-terminus of NS4A
Description: Recombinant HCV NS3/4A Protease Complex FRET Peptide Assay
The purpose of this in vitro assay was to measure the inhibition of HCV NS3 protease complexes, derived from the BMS, H77C or J416S strains, as described below, by compounds of the present invention. This assay provides an indication of how effective compounds of the present invention would be in inhibiting HCV proteolytic activity.
Serum from an HCV-infected patient was obtained from Dr. T. Wright, San Francisco Hospital. An engineered full-length cDNA (compliment deoxyribonucleic acid) template of the HCV genome (BMS strain) was constructed from DNA fragments obtained by reverse transcription-PCR (RT-PCR) of serum RNA (ribonucleic acid) and using primers selected on the basis of homology between other genotype 1a strains. From the determination of the entire genome sequence, a genotype 1a was assigned to the HCV isolate according to the classification of Simmonds et al. (See P Simmonds, K A Rose, S Graham, S W Chan, F McOmish, B C Dow, E A Follett, P L Yap and H Marsden, J. Clin. Microbiol., 31(6), 1493–1503 (1993)). […] The infectious clones, H77C (1a genotype) and J4L6S (1b genotype) were obtained from R. Purcell (NIH) and the sequences are published in Genbank (AAB67036, see Yanagi, M., Purcell, R. H., Emerson, S. U. and Bukh, J. Proc. Natl. Acad. Sci. U.S.A. 94(16),8738–8743 (1997); AF054247, see Yanagi, M., St Claire, M., Shapiro, M., Emerson, S. U., Purcell, R. H. and Bukh, J, Virology 244 (1), 161–172. (1998)).
The BMS, H77C and J4L6S strains were used for production of recombinant NS3/4A protease complexes. DNA encoding the recombinant HCV NS3/4A protease complex (amino acids 1027 to 1711) for these strains were manipulated as described by P. Gallinari et al. (see Gallinari P, Paolini C, Brennan D, Nardi C, Steinkuhler C, De Francesco R. Biochemistry. 38(17):5620–32, (1999)). Briefly, a three-lysine solubilizing tail was added at the 3′-end of the NS4A coding region. The cysteine in the P1 position of the NS4A-NS4B cleavage site (amino acid 1711) was changed to a glycine to avoid the proteolytic cleavage of the lysine tag. Furthermore, a cysteine to serine mutation was introduced by PCR at amino acid position 1454 to prevent the autolytic cleavage in the NS3 helicase domain. The variant DNA fragment was cloned in the pET21b bacterial expression vector (Novagen) and the NS3/4A complex was expressed in Escherichia. coli strain BL21 (DE3) (Invitrogen) following the protocol described by P. Gallinari et al. (see Gallinari P, Brennan D, Nardi C, Brunetti M, Tomei L, Steinkuhler C, De Francesco R., J. Virol. 72(8):6758–69 (1998)) with modifications. Briefly, NS3/4A expression was induced with 0.5 mM Isopropyl β-D-1-thiogalactopyranoside (IPTG) for 22 hr at 20° C. A typical fermentation (10L) yielded approximately 80 g of wet cell paste. The cells were resuspended in lysis buffer (10 mL/g) consisting of 25 mM N-(2-Hydroxyethyl)Piperazine-N′-(2-Ethane Sulfonic acid) (HEPES), pH7.5, 20% glycerol, 500 mM Sodium Chloride (NaCl), 0.5% Triton-X100, 1 ug/ml lysozyme, 5 mM Magnesium Chloride (MgCl2), lug/ml Dnasel, 5 mM β-Mercaptoethanol (βME), Protease inhibitor—Ethylenediamine Tetraacetic acid (EDTA) free (Roche), homogenized and incubated for 20 mins at 4° C. The homogenate was sonicated and clarified by ultra-centrifugation at 235000 g for 1 hr at 4° C. Imidazole was added to the supernatant to a final concentration of 15 mM and the pH adjusted to 8.0. The crude protein extract was loaded on a Nickel-Nitrilotriacetic acid (Ni-NTA) column pre-equilibrated with buffer B (25 mM HEPES, pH 8.0, 20% glycerol, 500 mM NaCl, 0.5% Triton-X100, 15 mM imidazole, 5 mM βME). The sample was loaded at a flow rate of 1 mL/min. The column was washed with 15 column volumes of buffer C (same as buffer B except with 0.2% Triton-X100). The protein was eluted with 5 column volumes of buffer D (same as buffer C except with 200 mM Imidazole). […]

[2] = system: HCV replicon in Huh7 cells; test: HCV replicon cell-based assay; design: species or system HCV strain 1B; details: Hepatitis C virus, Huh-7, 96 h, HCV replicon, 4 days, read-out: EC50 range
Description: HCV Replicon Cell-based Assay
An HCV replicon whole cell system was established as described by Lohmann V, Komer F, Koch J, Herian U, Theilmann L, Bartenschlager R., Science 285(5424):110–3 (1999). This system enabled us to evaluate the effects of our HCV Protease compounds on HCV RNA replication. Briefly, using the HCV strain 1B sequence described in the Lohmann paper (Assession number:AJ238799), an HCV cDNA was generated encoding the 5′ internal ribosome entry site (IRES), the neomycin resistance gene, the EMCV (encephalomyocarditis viurs)-IRES and the HCV nonstructural proteins, NS3-NS5B, and 3′ non-translated region (NTR). In vitro transcripts of the cDNA were transfected into the human hepatoma cell line, Huh7. […] Resulting cell lines were characterized for positive and negative strand RNA production and protein production over time.
Huh7 cells, constitutively expressing the HCV replicon, were grown in Dulbecco's Modified Eagle Media (DMEM) containing 10% Fetal calf serum (FCS) and 1 mg/ml G418 (Gibco-BRL). Cells were seeded the night before (1.5×10^4 cells/well) in 96-well tissue-culture sterile plates. Compound and no compound controls were prepared in DMEM containing 4% FCS, 1:100 Penicillin/Streptomysin, 1:100 L-glutamine and 5% DMSO in the dilution plate (0.5% DMSO final concentration in the assay). Compound/DMSO mixes were added to the cells and incubated for 4 days at 37° C. After 4 days, plates were rinsed thoroughly with Phosphate-Buffered Saline (PBS) (3 times 150 μl). The cells were lysed with 25 μl of a lysis assay reagent containing the FRET peptide (RET S1, as described for the in vitro enzyme assay). The lysis assay reagent was made from 5× cell Luciferase cell culture lysis reagent (Promega #E153A) diluted to 1× with distilled water, NaCl added to 150 mM final, the FRET peptide diluted to 10 μM final from a 2 mM stock in 100% DMSO. The plate was then placed into the Cytofluor 4000 instrument which had been set to 340 nm excitation/490 emission, automatic mode for 21 cycles and the plate read in a kinetic mode. EC50 determinations were carried out as described for the IC50 determinations.
As a secondary assay, EC50 determinations from the replicon FRET assay were confirmed in a quantitative RNA assay. Cells were lyzed using the Rneasy kit (Qiagen). Purified total RNA was normalized using RiboGreen (Jones L J, Yue S T, Cheung C Y, Singer V L, Anal. Chem., 265(2):368–74 (1998)) and relative quantitation of HCV RNA expression assessed using the Taqman procedure (Kolykhalov A A, Mihalik K, Feinstone S M, Rice C M, Journal of Virology 74, 2046–2051 (2000)) and the Platinum Quantitative RT-PCR Thermoscript One-Step kit (Invitrogen cat # 11731-015). Briefly, RNA made to a volume of 5 μl (<1 ng) was added to a 20 μl Ready-Mix containing the following: 1.25× Thermoscript reaction mix (containing Magnesium Sulfate and 2-deoxynucleoside 5′-triphosphates (dNTPs)), 3 mM dNTPs, 200 nM forward primer (sequence: 5′-[…]-3′), 600 nM reverse primer (5′-[…]-3′), 100 nM probe (5′-6-FAM-[…]-BHQ-1-3′)(FAM: Fluorescein-aminohexyl amidite; BHQ: Black Hole Quencher), 1 μM Rbx reference dye (Invitrogen cat # 12223-012) and Thermoscript Plus Platinum Taq polymerase mixture. All primers were designed with ABI Prism 7700 software and obtained from Biosearch Technologies, Novato, Calif. Samples containing known concentrations of HCV RNA transcript were run as standards. Using the following cycling protocol (50° C., 30 min; 95° C., 5 min; 40 cycles of 95° C., 15 sec, 60° C., 1 min), HCV RNA expression was quantitated as described in the Perkin Elmer manual using the ABI Prism 7700 Sequence Detector.
The luciferase reporter assay was also used to confirm compound potency in the replicon. Utilization of a replicon luciferase reporter assay was first described by Krieger et al (Krieger N, Lohmann V, and Bartenschlager R, J. Virol. 75(10):4614–4624 (2001)). […]

Structure (SMILES) | pIC50 [1] | pEC50 [2]
C=CC1C[C@]1(NC(=O)[C@@H]1C[C@@H](OC(=O)NCc2ccc(OC)cc2)CN1C(=O)[C@@H](NC(=O)OC(C)(C)C)C(C)(C)C)C(=O)NS(=O)(=O)C1CC1 (stereo partly drawn) [Compound 11, BocNH-P3(t-BuGly)-P2(Hyp(O—CO(NH—(4-methoxy-benzyl))))-P1(1R,2S VinylAcca)—CONHSO2Cyclopropane] | 6.00 to 7.00 | 5.00 to 6.00
C=CC1C[C@]1(NC(=O)[C@@H]1C[C@@H](OC(=O)N[C@H](C(=O)OC)[C@@H](C)CC)CN1C(=O)[C@@H](NC(=O)OC(C)(C)C)C(C)(C)C)C(=O)NS(=O)(=O)C1CC1 (stereo partly drawn) [Compound 12, BocNH-P3(t-BuGly)-P2(Hyp(O—CO(NH-2-[(2S,3S)-3-methylvaleric acid methyl ester])))-P1(1R,2S VinylAcca)—CONHSO2Cyclopropane] | 5.00 to 6.00 | < 5.00
C=CC1C[C@]1(NC(=O)[C@@H]1C[C@@H](OC(=O)N2CCCC2)CN1C(=O)[C@@H](NC(=O)OC(C)(C)C)C(C)(C)C)C(=O)NS(=O)(=O)C1CC1 (stereo partly drawn) [Compound 13, BocNH-P3(t-BuGly)-P2(Hyp(O—CO(N,N-(pyrrolidino))))-P1(1R,2S VinylAcca)—CONHSO2Cyclopropane] | 6.00 to 7.00 | < 5.00
C=CC1C[C@]1(NC(=O)[C@@H]1C[C@@H](OC(=O)N2CCCCC2)CN1C(=O)[C@@H](NC(=O)OC(C)(C)C)C(C)(C)C)C(=O)NS(=O)(=O)C1CC1 (stereo partly drawn) [Compound 14, BocNH-P3(t-BuGly)-P2(Hyp(O—CO(N,N-(piperdino))))-P1(1R,2S VinylAcca)—CONHSO2Cyclopropane] | 6.00 to 7.00 | 5.00 to 6.00
C=CC1C[C@]1(NC(=O)[C@@H]1C[C@@H](OC(=O)Nc2cc([N+](=O)[O-])ccc2C)CN1C(=O)[C@@H](NC(=O)OC(C)(C)C)C(C)(C)C)C(=O)NS(=O)(=O)C1CC1 (stereo partly drawn) [Compound 15, BocNH-P3(t-BuGly)-P2(Hyp(O—CO(NH—(2-methyl-5-nitro-phenyl))))-P1(1R,2S VinylAcca)—CONHSO2Cyclopropane] | > 7.00 | 5.00 to 6.00
C=CC1C[C@]1(NC(=O)[C@@H]1C[C@@H](OC(=O)Nc2ccc(F)c(F)c2F)CN1C(=O)[C@@H](NC(=O)OC(C)(C)C)C(C)(C)C)C(=O)NS(=O)(=O)C1CC1 (stereo partly drawn) [Compound 16, BocNH-P3(t-BuGly)-P2(Hyp(O—CO(NH—(2,3,4-trifluoro-phenyl))))-P1(1R,2S VinylAcca)—CONHSO2Cyclopropane] | 6.00 to 7.00 | 5.00 to 6.00
C=CC1C[C@]1(NC(=O)[C@@H]1C[C@@H](OC(=O)Nc2ccccc2C(C)(C)C)CN1C(=O)[C@@H](NC(=O)OC(C)(C)C)C(C)(C)C)C(=O)NS(=O)(=O)C1CC1 (stereo partly drawn) [Compound 17, BocNH-P3(t-BuGly)-P2(Hyp(O—CO(NH—(2-tert-butyl-phenyl))))-P1(1R,2S VinylAcca)—CONHSO2Cyclopropane] | 6.00 to 7.00 | 5.00 to 6.00
C=CC1C[C@]1(NC(=O)[C@@H]1C[C@@H](OC(=O)Nc2cc(Cl)nc(Cl)c2)CN1C(=O)[C@@H](NC(=O)OC(C)(C)C)C(C)(C)C)C(=O)NS(=O)(=O)C1CC1 (stereo partly drawn) [Compound 18, BocNH-P3(t-BuGly)-P2(Hyp(O—CO(NH—(2,6-Dichloro-pyridin-4-yl))))-P1(1R,2S VinylAcca)—CONHSO2Cyclopropane] | 6.00 to 7.00 | < 5.00
C=CC1C[C@]1(NC(=O)[C@@H]1C[C@@H](OC(=O)Nc2ccccc2C(=O)OCC)CN1C(=O)[C@@H](NC(=O)OC(C)(C)C)C(C)(C)C)C(=O)NS(=O)(=O)C1CC1 (stereo partly drawn) [Compound 19, BocNH-P3(t-BuGly)-P2(Hyp(O—CO(NH—(2-benzoic acid ethyl ester))))-P1(1R,2S VinylAcca)—CONHSO2Cyclopropane] | > 7.00 | > 7.00
C=CC1C[C@]1(NC(=O)[C@@H]1C[C@@H](OC(=O)Nc2cc(Cl)ccc2C)CN1C(=O)[C@@H](NC(=O)OC(C)(C)C)C(C)(C)C)C(=O)NS(=O)(=O)C1CC1 (stereo partly drawn) [Compound 20, BocNH-P3(t-BuGly)-P(Hyp(O—CO(NH—(5-chloro-2-methyl-phenyl))))-P1(1R,2S VinylAcca)—CONHSO2Cyclopropane] | > 7.00 | 5.00 to 6.00
